Test results published in a melting point compilation (Tetko et al.; mined from patent text by program, amines drawn as free bases though some values may be those of a salt).

Row | Structure (SMILES) | melting point
1 | CN1C=C(c2ccccc2)c2cccc(NC(=O)C=NO)c2C1 | 151 °C
2 | CCOc1nc(OCC)c([N+](=O)[O-])c(N2CCS(=O)CC2)n1 | 130 to 132 °C
3 | CC(C)(C)OC(=O)Nc1ccc(F)c(F)c1C(=O)O | 160 °C
4 | O=C(O)c1ccc(C#Cc2ccccc2)cc1 | 224 to 225 °C
5 | OC1CSC(Oc2cccnc2-c2nnn[nH]2)C(O)C1O (stereo unspecified) | 170 °C
6 | CCOC(=O)N(c1ccc(Cl)cc1)c1ccccc1N=NC(NC(=O)CCl)(C(=O)OCC)C(=O)OCC | 80 to 85 °C
7 | O=[N+]([O-])c1cnc2ccc(F)cc2c1Nc1ccccc1F | 161 to 162 °C
8 | COCOc1cccc2c(Br)cccc12 | 49 to 50 °C
9 | O=C1Cn2ncnc2-c2cc(F)ccc2N1 | 232 to 238 °C
10 | COc1c(C)cc(-c2cc(-c3cccnc3)c(N3CCOCC3)s2)nc1C | 139 to 140 °C
11 | COc1ccc2c(c1)c(Cc1nc(-c3csc4ccccc34)cs1)c(C)n2C(=O)c1ccc(Cl)cc1 | 68 to 72 °C
12 | COc1cccc2c1C(=O)c1c(cc3c(c1O)CCC(C(C)=O)C3)C2=O (stereo unspecified) | 222 to 225 °C
13 | CC1CCN(c2ccc(N)cc2C(=O)c2ccc(Cl)cc2)CC1 | 89 °C
14 | CNC=C1C(=O)C(C)(C)OC1(C)C | 80 to 82 °C
15 | Cc1cccc(NC(=O)CN2CCN(c3ccccn3)CC2)c1 | 126 to 127 °C
16 | Cc1ncc(CN2CC=C(CCc3ccccc3)CC2)c(N)n1 | 152 to 154 °C
17 | O=C(COc1ccccc1)NC1C(=O)NC1SCC(=O)C1CCCS1 (mixture of isomers) | 123 °C
18 | CCCCOC(=O)c1ccc2c(c1)C(=O)NC(C(Cl)(Cl)Cl)O2 (stereo unspecified) | 134 to 136 °C
19 | CC(C)=Cc1ccc(C(C)C(=O)O)cc1 (stereo unspecified) | 53 to 54 °C
20 | COc1ccc(C2(O)CCS(=O)(=O)CC2)cc1OC1CCCC1 | 147 to 149 °C
21 | Fc1ccc2c(-c3cccc(OC[C@@H]4CO4)c3)noc2c1 | 83 to 84 °C
22 | Cc1nc2n(c(=O)c1CCN1CCC(C(=O)c3ccc(F)cc3)CC1)CCCN2Cc1ccccc1 | 126 °C
23 | COC(=O)C(C#N)=Cc1cc2c(cc1C)N(CCOC(C)=O)C(C)(C)CC2C (stereo unspecified) | 134 to 135 °C
24 | O=C(NCCO[N+](=O)[O-])c1cnc(-c2ccccc2)s1 | 148 to 149 °C
25 | CCNc1nc(NC(C)C)nc(OC)n1 | 95 to 96 °C
26 | Cc1cc(-n2cncn2)c2cccc(C)c2n1 | 99 to 100 °C

Row | Structure (SMILES) | melting point
27 | CC(C)(NSc1nc2ccccc2s1)c1ccccc1 | 88 to 90 °C
28 | Cc1ccc(Sc2cncc3sc(C(=O)O)cc23)cc1 | 272 to 274 °C
29 | CC(C)(C)c1ccc(C(=O)Nc2cn3nc(-n4cnc(Cl)c4Cl)ccc3n2)cc1 | 281 to 282 °C
30 | CC(=O)CCN1C[C@H]2Cc3ccccc3[C@H](c3ccccc3)[C@H]2C1 (racemic) | 121 to 124 °C
31 | Cc1cc(-c2nc3cccnn3c2-c2ccnc(NC(=O)c3ccccc3)c2)ccc1F | 189 to 190 °C
32 | CCCCOC(=O)c1ccc(C#N)cc1 | 54 to 55 °C
33 | COC(=O)Cc1cccc(NC(=O)NCC(=O)O)c1 | 136 °C
34 | COC(=O)c1snc(-c2ccccc2)c1C(=O)OC | 70 to 71.5 °C
35 | COc1cccc(Nc2nc(OCC3CCCCC3)c3[nH]cnc3n2)c1 | 186 to 189 °C
36 | CCOc1ccc2c(c1)C(=O)Cc1c(Cl)cccc1S2 | 121 to 123 °C
37 | O=C1Nc2c(Cl)cc(Cl)cc2C12CCCC2 | 175 to 176 °C
38 | CCOC(=O)C1=C(C)Nc2nc(N3CCOCC3)nc(N3CCOCC3)c2C1c1ccc(Cl)cc1 (stereo unspecified) | 128 °C
39 | O=C(O)c1cccc(-c2nc3sccn3c2-c2ccnc(N[C@@H]3CCCN(S(=O)(=O)c4ccc(Cl)cc4)C3)n2)c1 | 190 to 195 °C
40 | CC(C)CCC1(c2ccccc2)CC=CC(=O)O1 (stereo unspecified) | 134 to 136 °C
41 | COc1cc(CC2NC(=O)NC2=O)cc(OC)c1OC (stereo unspecified) | 180 to 181 °C
42 | CC(C)Oc1cc(CCCOc2ncccc2CC(=O)O)n(Cc2ccc(F)cc2Cl)n1 | 90 to 91 °C
43 | CCCCc1nc(C(C)O)c(C(=O)OCC)[nH]1 (stereo unspecified) | 149 °C
44 | O=C(O)c1ccc(-c2cn(-c3ccc(OC(F)(F)F)cc3)cn2)cc1 | 230 °C
45 | N#Cc1cc(NC(=O)c2sc3ccccc3c2Cl)ccc1N1CCC(N2CCOCC2)CC1 | 227 to 228 °C
46 | CCOC(=O)c1nnc2c(sc3nc(C)ccc32)c1OCC | 158 to 160 °C
47 | CSc1ccc(-c2nn(CC=Cc3ccccc3)c(=O)cc2-c2ccc(Cl)cc2)cc1 | 109 to 110 °C
48 | COC(=O)C(C(=O)N1CCOCC1)C(c1ccccc1)c1cc2cc(Br)ccc2nc1OC (stereo unspecified) | 206 to 208 °C
49 | CC(=O)NC[C@H]1CN(c2ccc(N3CCC(=CC4(C#N)CC4)CC3)c(F)c2)C(=O)O1 | 175 to 179 °C
50 | O=C1NC(C(=O)N2CC(O)CC2C(=O)O)CSCCCCCCCC1CS (stereo unspecified) | 124 to 130 °C
51 | COCCNC(=O)C(NC(=O)OCc1ccccc1)c1ccc2c(c1)CCO2 (stereo unspecified) | 90 to 110 °C
52 | CC(CCc1ccc(C(C)C(=O)O)cc1)C(=O)O (stereo unspecified) | 107 to 109 °C

Row | Structure (SMILES) | melting point
53 | CCc1cc2c(SCC(=O)OC)ncnc2s1 | 36 to 58 °C
54 | CC(C)(C)OC(=O)N1CCc2c(/C=C/[N+](=O)[O-])c3ccccc3n2CC1 | 227 to 230 °C
55 | CC(=O)COc1c([N+](=O)[O-])ccc(F)c1C(C)=O | 64 to 65 °C
56 | Cn1ncnc1COc1nc2c(cc1-c1ccccc1)nnn2-c1ccccc1F | 144 to 146 °C
57 | CN(c1cccc2cc(-c3ncc(C(=O)O)s3)[nH]c12)S(=O)(=O)c1cccs1 | 258 to 260 °C
58 | C[C@H](C(=O)N[C@H](CO)Cc1ccccc1)c1ccc(NS(C)(=O)=O)c(F)c1 | 150 to 153 °C
59 | O=C(NC(=O)N(SC(Cl)(Cl)Cl)c1ccc(C(F)(F)F)cc1)c1c(F)cccc1F | 129 to 130 °C
60 | COc1cc(C(O)(C(F)(F)F)C(F)(F)F)cc(C)c1OCC(=O)O | 111 to 113 °C
61 | Cc1cc(SCc2ccc(OC3CCc4cc(Cl)ccc43)cc2)ccc1OCC(=O)O (stereo unspecified) | 130 to 131 °C
62 | Clc1cccc(-c2ccc3cnc(Nc4ccc(N5CCOCC5)nc4)nn23)c1 | 221 to 222 °C
63 | OC/C=C/CC/C=C/CC/C=C/CO | 37 to 38 °C
64 | Cc1cc(SC(C)C)c(NC(=O)CSc2nc3ccccc3o2)c(SC(C)C)n1 | 151 to 152 °C
65 | COc1ccc(C(=O)NNC(=O)c2occ(-c3ccccc3)c2-c2ccccc2)cc1F | 110 to 112 °C
66 | c1ccc2[nH]c(CN3CCOCC3)nc2c1 | 235 to 236 °C
67 | CS(=O)(=O)c1nccc(Oc2ccccc2)n1 | 113 to 116 °C
68 | N=C(N)c1ccc(C(=O)N2CCCCC2C(=O)N2CCC(OCC(=O)O)CC2)cc1 (stereo unspecified) | 233 to 234 °C
69 | CCOCn1c(C(OC(C)=O)c2ccccc2)c(C(C)C)c(=O)[nH]c1=O (stereo unspecified) | 158 °C
70 | O=C(Nc1cnc2c(c1)nc1n2CCC1)c1cc2cc(F)ccc2n1Cc1cccc(F)c1 | 227 to 229 °C
71 | COc1ccc2c3c1OC1C4(CCC5(F)C(C2)N(C(=O)C2CC2)CCC315)OCCO4 (stereo unspecified) | 191 to 193 °C
72 | CCOCC(=O)Nc1nc(-c2ccco2)c(C(=O)C2CCOCC2)s1 | 121 to 126 °C
73 | Cc1ccc(Cn2ncnc2C(NS(=O)(=O)c2ccc(Cl)s2)C(C)C)cc1 (stereo unspecified) | 124 to 125 °C
74 | COCOc1ccc(Cl)cc1-c1cc(-c2cccc([N+](=O)[O-])c2)c(C#N)c(NC(=O)c2ccccc2)n1 | 205 to 206 °C
75 | CC(C)c1cccc(-c2ccc(F)cc2)c1OCCOc1ccc(C(=O)C(=O)O)cc1 | 123 to 125 °C
76 | C[C@@H]1N=C(c2ccccc2Cl)c2cc([N+](=O)[O-])ccc2NC1=O | 200 to 202 °C
77 | C#CCNC(=O)c1cc(C(=O)OC)c(O)c2ncc(Cc3ccc(F)cc3)cc12 | 192 to 193 °C
78 | O=C(c1ccc(Cl)cc1Cl)C1(n2cncn2)CC1 | 55 to 56 °C

Row | Structure (SMILES) | melting point
79 | N#CC=CC(=O)C=NN1CC(=O)NC1=O | 171 to 173 °C
80 | CC(C)(C)c1cc(SC(=O)NN)cc(C(C)(C)C)c1O | 130 to 131 °C
81 | CCOC(=O)N1CCC(Nc2nccc(Oc3ccc(NC(=O)c4cc(F)cc(N5CCOCC5)c4)c4ccccc34)n2)CC1 | 122 to 124 °C
82 | C#CCN1CCc2ccc([N+](=O)[O-])cc2CC1 | 122 to 125 °C
83 | Brc1ccc(C=Cc2cc3ccccc3s2)s1 | 171 to 172 °C
84 | CCc1ccc2oc(C(=O)Nc3ccc(-c4ccc(S(=O)(=O)NC(C(=O)OC)C(C)C)cc4)cc3)c(C)c2c1OCc1ccccc1 (stereo unspecified) | 191 to 193 °C
85 | CCN1C(=O)C(=C(Cc2ccccc2)OC)SC1=S | 120 to 122 °C
86 | CC(C)c1oc(C=Cc2ccccc2)nc1CO | 91 to 92 °C
87 | Cc1nnc2n1-c1sc(CCC(=O)O)cc1C(c1ccccc1Cl)=NC2C (stereo unspecified) | 202 to 204 °C
88 | COc1c(Cl)ccc(-c2cc(N)c(Cl)c(C(=O)NOCc3cncs3)n2)c1F | 179 to 181 °C
89 | Cn1c2c(c3cccc(F)c31)C(=O)NCC2 | 242 °C
90 | Cc1ccc(C2(O)CCNCC2)cc1 | 137 to 138 °C
91 | O=C1COC(C#Cc2cccnc2)(C(F)(F)F)c2cc(Cl)ccc2N1 (stereo unspecified) | 219 to 221 °C
92 | Cc1nc2cc3c(cc2s1)C1(CO3)C(=O)N(CCC(C)C)c2ccccc21 (stereo unspecified) | 137 to 138 °C
93 | CSc1ccc2c(c1)C(Cl)c1ccccc1C=C2 (stereo unspecified) | 135 to 138 °C
94 | O=Cc1cc(N2CCN(Cc3ccccc3)CC2)ccc1O | 101 to 103 °C
95 | CC(O)CN(C)c1nnc2c3ccc(Cl)cc3c(-c3ccccc3)nn12 (stereo unspecified) | 236 to 238 °C
96 | Cc1nc(NC(=O)c2cc[nH]c(=O)c2)sc1C(=O)NCc1ccccc1 | 290 to 292 °C
97 | Cc1cccc(NC(=O)NC2N=C(CC(C)C)c3cccc(C)c3N(CC(=O)C3CCCCC3)C2=O)c1 (stereo unspecified) | 152 to 155 °C
98 | CCCC1=CC(NC)=Nc2ccc(Cl)cc2C(c2ccccc2)=[N+]1[O-] | 104 to 106 °C
99 | Clc1ccc2c(C3CCN(CCCCC4Cc5ccccc5C4)CC3)c[nH]c2c1 | 139 to 140 °C
100 | Cc1ncc(CCCOc2c(C)cc(C#N)cc2C)s1 | 64 to 66 °C
101 | CCOC(=O)CCCCCCn1cnc2ccncc21 | 64 to 65 °C
